Results on four compounds are retold here after PMC10216478, “Development of a Non-Peptide Angiotensin II Type 1 Receptor Ligand by Structural Modification of Olmesartan as a Biased Agonist” (Biomedicines, 2023).

The target of one experiment is T1, AT1 L112A receptor (Rattus norvegicus, UniProt P25095, L112A).
T1 construct: expressed in transfected cells; host or cells: COS7
T1 sequence (P25095 1-359 L112A): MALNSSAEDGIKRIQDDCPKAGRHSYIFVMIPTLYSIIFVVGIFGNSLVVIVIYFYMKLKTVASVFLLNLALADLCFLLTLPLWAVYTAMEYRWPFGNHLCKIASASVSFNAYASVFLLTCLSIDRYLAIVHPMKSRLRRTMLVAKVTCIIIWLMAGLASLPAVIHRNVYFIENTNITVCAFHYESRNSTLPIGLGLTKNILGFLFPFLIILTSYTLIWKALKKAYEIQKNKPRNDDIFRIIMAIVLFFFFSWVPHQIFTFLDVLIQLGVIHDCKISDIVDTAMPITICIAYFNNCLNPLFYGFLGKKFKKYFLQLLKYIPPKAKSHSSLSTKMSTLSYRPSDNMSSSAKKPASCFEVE
Description: Immunoblotting of ERK 1/2 activation in COS7 cells overexpressing AT1-L112A receptor. The experiment is classed as cell-based. Conditions: 1 µM ligands or 0.1 µM Ang II, 10 min, n = 5, vs. (-). The protocol: The synthetic rat AT1 receptor gene, which was cloned in the shuttle expression vector pMT-2, was used for expression and mutagenesis, as described previously. […] In the experiments, cells were grown without a cell-growth supplement. To express the AT1 receptor protein, 10 µg of purified plasmid DNA per 10^7 cells was used in the transfection. Wild-type and mutated AT1 receptors were transiently transfected into cells using Lipofectamine 2000 liposomal reagent (Roche Applied Science, Penzberg, Germany). Cells were plated and grown and were 70–90% confluent at the time of transfection. We incubated plasmid DNA (10 µg)–lipid (10 µL) complexes for 5 min at room temperature and added and incubated the complexes with cells for 24 h. We then analyzed the parameters in transfected cells. […] Transfected cells that had been cultured for 48–72 h were harvested. Cell membranes were prepared using the nitrogen Parr bomb disruption or freeze–thaw methods.
In in vitro studies, ERK 1/2 activation by 1 µM ligands or 0.1 µM Ang II incubated for 10 min was measured using COS7 cells that overexpressed AT1 wild-type and mutant receptors. ERK activity was measured in cells maintained for 18 h in DMEM containing 0.1% serum. At the end of the stimulation, the culture medium was removed by aspiration, the cells were washed with ice-cold phosphate-buffered saline, and the dishes were frozen in liquid nitrogen. The cells were scraped using a scraper after melting, and the scraped cells were transferred to a tube. We homogenized the cells in lysis buffer plus protease inhibitors and determined the protein concentration using the bicinchoninic acid method. […] We fractionated total proteins using sodium dodecyl sulfate polyacrylamide gel electrophoresis; we then transferred the proteins to a Hybond nitrocellulose membrane and blocked the blotted membranes with 10% bovine serum albumin in tris-buffered saline buffer (50 mM Tris–HCl pH 7.6, 150 mM NaCl) for 1 h at room temperature. […] An enhanced chemiluminescent substrate system (Amersham, Buckinghamshire, UK) was used. The signal was independently quantified by digital image analysis (ImageJ, National Institutes of Health, Bethesda, MD, USA).

Another experiment concerns the target T2, AT1 Q257A receptor (Rattus norvegicus, UniProt P25095, Q257A).
T2 construct: expressed in transfected cells; host or cells: COS7
T2 sequence (P25095 1-359 Q257A): T1 sequence (P25095 1-359 L112A) with A112L, Q257A
Put plainly: Competition binding study, 125I-[Sar1,Ile8]Ang II, AT1 Q257A receptor. The conditions noted are these: competition with 125I-[Sar1,Ile8]Ang II, n = 3, mean ± standard error, read-out: Binding affinity (Kd). The text has this: We mutated four amino acids in transmembrane (TM) III, VI, and VII in the AT1 receptor (L112A, Q257A, Y292A, and N295A receptors). We determined the mutation sites of the AT1 receptor according to ARB, which produced olmesartan derivatives with different interactions and functions toward the AT1 receptor, as previously reported by Zhang et al., since the additional 4-hydroxybenzyl groups of R781253 and R794847 were predicted to extend to a sub-pocket on the bottom of the AT1 receptor ligand-binding pocket consisting of Leu^112 and Gln^257. In addition, since the biased ligand TRV027 induced changes near the NPxxY motif in TM domain 7 that are related to receptor activation, Tyr^292 and Asn^295 in the AT1 receptor were mutated.
The synthetic rat AT1 receptor gene, which was cloned in the shuttle expression vector pMT-2, was used for expression and mutagenesis, as described previously. COS7 cells (No. CRL-1651, ATCC, Manassas, VA, USA) were cultured in 10% fetal bovine serum (FBS) and penicillin- and streptomycin-supplemented Dulbecco’s modified Eagle’s essential medium (PS-DMEM) in 5% CO2 at 37 °C. In the experiments, cells were grown without a cell-growth supplement. To express the AT1 receptor protein, 10 µg of purified plasmid DNA per 10^7 cells was used in the transfection. Wild-type and mutated AT1 receptors were transiently transfected into cells using Lipofectamine 2000 liposomal reagent (Roche Applied Science, Penzberg, Germany). Cells were plated and grown and were 70–90% confluent at the time of transfection. We incubated plasmid DNA (10 µg)–lipid (10 µL) complexes for 5 min at room temperature and added and incubated the complexes with cells for 24 h. We then analyzed the parameters in transfected cells. Cell viability was >95% according to trypan blue exclusion analysis in the control experiments. Transfected cells that had been cultured for 48–72 h were harvested. Cell membranes were prepared using the nitrogen Parr bomb disruption or freeze–thaw methods.
The Kd (nM) values of receptor binding were determined with ^125I-[Sar^1, Ile^8]AngII-binding experiments under equilibrium conditions. Binding kinetics were determined following the methods described in the literature. We carried out binding by using ^125I-[Sar^1, Ile^8] AngII (2200 Ci/mmol) and an increasing concentration (10^−11–10^−5 M) of each unlabeled compound. Nonspecific binding of ^125I-[Sar^1, Ile^8] Ang II was determined in the presence of a high concentration (10^−6 M) of unlabeled [Sar^1, Ile^8]. Next, the incubation mixture was separated by vacuum filtration through Whatman GF/C glass filters (Disposable Filter Funnels Grade GF/C, GE Healthcare), and presoaked with 0.1% polyethylenimine. The filter was washed with 3 mL of ice-cold stop buffer (25 mM Tris–HCl, pH 7.4, 1 mM MgCl2). The radioactivity trapped on the filters was quantified using an automatic γ-counter. The percentage (%) of specific binding of ^125I-[Sar^1, Ile^8]Ang II was calculated using the following formula: 100 × (% total binding of ^125I-[Sar^1, Ile^8]Ang II—nonspecific binding of ^125I-[Sar^1, Ile^8]Ang II)/(% total binding of ^125I-[Sar^1, Ile^8]Ang II).

Positions count from the first letter of the chain named.

For the compound `CCCc1nc(C(C)(C)O)c(C(N)=O)n1Cc1ccc(-c2cc(Cc3ccc(O)cc3)ccc2-c2nnn[nH]2)cc1` [R794847], the ERK1/2 activation result on AT1 L112A receptor was “activated ERK1/2”. The dissociation constant (Kd) – broadly, the free concentration of one partner at which half of the binding sites on the other are occupied at equilibrium, for simple one-to-one binding – on AT1 Q257A receptor worked out at 2.7 ± 0.8 nM.
For `CCCc1nc(C(C)(C)O)c(C(N)=O)n1Cc1ccc(-c2ccccc2-c2nnn[nH]2)cc1` [R239470], the ERK1/2 activation result at AT1 L112A receptor is “but not R239470, activated ERK1/2”. Besides, on AT1 Q257A receptor, the Kd was determined as 20 ± 2 nM.
For `CCCc1nc(C(C)(C)O)c(C(=O)O)n1Cc1ccc(-c2ccccc2-c2nnn[nH]2)cc1` [Olmesartan, olmesartan] the same measures were “did not change ERK1/2 activation” and 228 ± 38 nM.
For `CCCc1nc(C(C)(C)O)c(C(=O)O)n1Cc1ccc(-c2cc(Cc3ccc(O)cc3)ccc2-c2nnn[nH]2)cc1` [R781253] the same measures were “activated ERK1/2” and 14 ± 6 nM.
